Laboratory results reported in patent US4345938A, “Herbicidal 2-haloacetanilides” (Monsanto Company, priority 1980, dated 1982).
Like-named read-outs stand apart in the source and are kept apart here.

How the values were obtained:
Cyperus serotinus = test: Field transplant rice test, applied 0 DAT, CS; type: in vivo; details: 0 h, read-out: Percent Inhibition, CS; for inhibition at 375 g/ha: 0.375 Kg/Ha; for inhibition at 750 g/ha: 0.75 Kg/Ha; for inhibition at 1500 g/ha: 1.5 Kg/Ha; for inhibition at 3000 g/ha: 3.0 Kg/Ha
Procedure: (§1) The test data in Table III for all compounds was obtained under identical test conditions. The weeds used in the tests herein have the following abbreviations in the tables: Echinochloa crus-galli (EC), Monochloria vaginalis (MV), Cyperus Serotinus (CS), Eleocharis Kuroguwai (EK) and Sagittaria trifolia (ST).
(§2) In further comparative tests, a preferred compound of this invention (Example 1) was tested in the field with prior art Compounds A-D. These tests were conducted under conditions reflecting herbicide application times generally favorable to all herbicides in the test. The timing of application of herbicides to transplant rice is very important, whether, as in some instances, prior to transplanting the rice; in other instances, at the time of transplanting or else after transplanting. Application times are conventionally referred to as "days before transplant" (DBT) or "days after transplant" ("DAT"). The field test data in Table IV was obtained from a test in which the herbicides were applied at the time of transplant, i.e., "0 DAT", with observations being made weekly up to six weeks after transplant ("WAT") beginning at two weeks after transplant; for illustrative and representative purposes, only the early, middle and late period observations, i.e., 2 WAT, 4 WAT and 6 WAT, are shown in Table IV. The data in Table IV is for rates of application common to all herbicides in the test, i.e., from 3.0 kg/ha (2.67 lb/A) down to 0.375 kg/ha (0.34 lb/A). All herbicides were applied at their actual or expected use rates, i.e., as granules containing 2.5% by weight herbicide for the compound of Example 1, Compounds B, C and D and 5.0% by weight for Compound A.

Echinochloa crus-galli = test: Field transplant rice test, applied 9 DAT, EC; type: in vivo; details: Echinochloa crus-galli, 216 h, read-out: Percent Inhibition, EC; for inhibition at 375 g/ha: 0.375 Kg/Ha; for inhibition at 750 g/ha: 0.75 Kg/Ha; for inhibition at 1500 g/ha: 1.5 Kg/Ha; for inhibition at 3000 g/ha: 3.0 Kg/Ha
Description: (§3) In the discussion of data below, occasional reference is made to herbicide application rates symbolized as "GR15 " and "GR85 "; these rates are given in kilograms per hectare (kg/ha) which are convertible into pounds per acre (lbs/A) by dividing the kg/ha rate by 1.12.
(§4) A further guide to the effectiveness of a chemical as a selective herbicide is the "selectivity factor" ("SF") for a herbicide in given crops and weeds. The selectivity factor is a measure of the relative degree of crop safety and weed injury and is expressed in terms of the GR15 /GR85 ratio, i.e., the GR15 rate for the crop divided by the GR85 rate for the weed, both rates in kg/ha (lb/A.)
as §1, §2
(§5) In Table V are presented field data showing the relative performance of the compound of Example 1 and Compounds A-D applied 9 DAT, with observations being made weekly from 3 WAT to 7 WAT; again, for illustrative and representative purposes, only the early, middle and late period observations are reported in Table V, the herbicide rates and concentrations of active ingredients the same as is shown in Table IV.

Rice = test: Greenhouse transplant rice test, rice injury; type: in vivo, Rice (Bluebelle); details: Oryza sativa, about 3 WAT, read-out: Percent Inhibition, Rice
Description: (§6) The test procedure used in this greenhouse test is as follows: Ray silt loam top soil containing about 0.05% by weight of krillium and sifted through a […] screen is fumigated about 5-10 days prior to use. Pots are then filled with said Ray silt loam soil to a level to allow for a 1 in. (2.54 cm) flooding depth. Rice plants (Bluebelle) of 2 to 3 weeks age are transplanted to the pots and bulbs or seeds of the test weeds also planted in the pots. The pots are then flooded and the test chemical applied to the surface of the flood water. The flood water is reduced to allow for germination of the Echinochloa crus-galli (barnyardgrass) seed and subsequently reflooded and maintained in that condition. Observations of percent inhibition using a scale of 0-100% are made about 3 weeks after transplant (WAT).
as §1

Eleocharis kuroguwai [1] = test: Greenhouse transplant rice test, EK; type: in vivo; details: about 3 WAT, read-out: Percent Inhibition, EK
Description: as §6, §1

Monochoria vaginalis = test: Field transplant rice test, applied 9 DAT, MV; type: in vivo; details: for inhibition at 375 g/ha / inhibition at 750 g/ha / inhibition at 1500 g/ha / inhibition at 3000 g/ha: Pontederia vaginalis, 216 h, read-out: Percent Inhibition, MV; for inhibition at 375 g/ha: 0.375 Kg/Ha; for inhibition at 750 g/ha: 0.75 Kg/Ha; for inhibition at 1500 g/ha: 1.5 Kg/Ha; for inhibition at 3000 g/ha: 3.0 Kg/Ha
Description: as §3, §4, §1, §2, §5

Eleocharis kuroguwai [2] = test: Field transplant rice test, applied 9 DAT, EK; type: in vivo; details: for inhibition at 375 g/ha / inhibition at 750 g/ha / inhibition at 1500 g/ha / inhibition at 3000 g/ha: Eleocharis kuroguwai, 216 h, read-out: Percent Inhibition, EK; for inhibition at 375 g/ha: 0.375 Kg/Ha; for inhibition at 750 g/ha: 0.75 Kg/Ha; for inhibition at 1500 g/ha: 1.5 Kg/Ha; for inhibition at 3000 g/ha: 3.0 Kg/Ha
Description: as §3, §4, §1, §2, §5

Sagittaria trifolia = test: Greenhouse transplant rice test, ST; type: in vivo
Description: as §6, §1

CCCCOc1cccc(CC)c1N(C)C(=O)CCl [Example 1, N-methyl-2'-n-butoxy-6'-ethyl-2-chloroacetanilide]
inhibition at 375 g/ha (Cyperus serotinus; 2 WAT): 77%
inhibition at 375 g/ha (Cyperus serotinus; 4 WAT): 73%
inhibition at 375 g/ha (Cyperus serotinus; 6 WAT): 50%
inhibition at 750 g/ha (Cyperus serotinus; 2 WAT): 62%
inhibition at 750 g/ha (Cyperus serotinus; 4 WAT): 53%
inhibition at 750 g/ha (Cyperus serotinus; 6 WAT): 25%
inhibition at 1500 g/ha (Cyperus serotinus; 2 WAT): 92%
inhibition at 1500 g/ha (Cyperus serotinus; 4 WAT): 83%
inhibition at 1500 g/ha (Cyperus serotinus; 6 WAT): 73%
inhibition at 3000 g/ha (Cyperus serotinus; 2 WAT): 95%
inhibition at 3000 g/ha (Cyperus serotinus; 4 WAT): 99%
inhibition at 3000 g/ha (Cyperus serotinus; 6 WAT): 100%
inhibition at 375 g/ha (Echinochloa crus-galli; 3 WAT): 90%
inhibition at 375 g/ha (Echinochloa crus-galli; 5 WAT): 88%
inhibition at 375 g/ha (Echinochloa crus-galli; 7 WAT): 78%
inhibition at 750 g/ha (Echinochloa crus-galli; 3 WAT): 100%
inhibition at 750 g/ha (Echinochloa crus-galli; 5 WAT): 100%
inhibition at 750 g/ha (Echinochloa crus-galli; 7 WAT): 100%
inhibition at 1500 g/ha (Echinochloa crus-galli; 3 WAT): 100%
inhibition at 1500 g/ha (Echinochloa crus-galli; 5 WAT): 98%
inhibition at 1500 g/ha (Echinochloa crus-galli; 7 WAT): 100%
inhibition at 3000 g/ha (Echinochloa crus-galli; 3 WAT): 100%
inhibition at 3000 g/ha (Echinochloa crus-galli; 5 WAT): 100%
inhibition at 3000 g/ha (Echinochloa crus-galli; 7 WAT): 100%
inhibition at 280 g/ha (Rice; 0.28 Kg/Ha): 5%
inhibition at 560 g/ha (Rice; 0.56 Kg/Ha): 0%
inhibition at 1120 g/ha (Rice; 1.12 Kg/Ha): 15%
inhibition at 2240 g/ha (Rice; 2.24 Kg/Ha): 20%
inhibition at 280 g/ha (Eleocharis kuroguwai [1]; 0.28 Kg/Ha): 100%
inhibition at 560 g/ha (Eleocharis kuroguwai [1]; 0.56 Kg/Ha): 100%
inhibition at 1120 g/ha (Eleocharis kuroguwai [1]; 1.12 Kg/Ha): 100%
inhibition at 2240 g/ha (Eleocharis kuroguwai [1]; 2.24 Kg/Ha): 100%
inhibition at 375 g/ha (Monochoria vaginalis; 3 WAT): 100%
inhibition at 375 g/ha (Monochoria vaginalis; 5 WAT): 100%
inhibition at 375 g/ha (Monochoria vaginalis; 7 WAT): 100%
inhibition at 750 g/ha (Monochoria vaginalis; 3 WAT): 100%
inhibition at 750 g/ha (Monochoria vaginalis; 5 WAT): 100%
inhibition at 750 g/ha (Monochoria vaginalis; 7 WAT): 100%
inhibition at 1500 g/ha (Monochoria vaginalis; 3 WAT): 100%
inhibition at 1500 g/ha (Monochoria vaginalis; 5 WAT): 100%
inhibition at 1500 g/ha (Monochoria vaginalis; 7 WAT): 100%
inhibition at 3000 g/ha (Monochoria vaginalis; 3 WAT): 100%
inhibition at 3000 g/ha (Monochoria vaginalis; 5 WAT): 100%
inhibition at 3000 g/ha (Monochoria vaginalis; 7 WAT): 100%
selectivity factor (GR15/GR85), MV in transplant rice (Monochoria vaginalis; between 3 WAT and 7 WAT): 16
inhibition at 375 g/ha (Eleocharis kuroguwai [2]; 3 WAT): 80%
inhibition at 375 g/ha (Eleocharis kuroguwai [2]; 5 WAT): 52%
inhibition at 375 g/ha (Eleocharis kuroguwai [2]; 7 WAT): 15%
inhibition at 750 g/ha (Eleocharis kuroguwai [2]; 3 WAT): 83%
inhibition at 750 g/ha (Eleocharis kuroguwai [2]; 5 WAT): 68%
inhibition at 750 g/ha (Eleocharis kuroguwai [2]; 7 WAT): 13%
inhibition at 1500 g/ha (Eleocharis kuroguwai [2]; 3 WAT): 82%
inhibition at 1500 g/ha (Eleocharis kuroguwai [2]; 5 WAT): 65%
inhibition at 1500 g/ha (Eleocharis kuroguwai [2]; 7 WAT): 0%
inhibition at 3000 g/ha (Eleocharis kuroguwai [2]; 3 WAT): 93%
inhibition at 3000 g/ha (Eleocharis kuroguwai [2]; 5 WAT): 93%
inhibition at 3000 g/ha (Eleocharis kuroguwai [2]; 7 WAT): 67%
selectivity factor (GR15/GR85), EK in transplant rice (Eleocharis kuroguwai [2]; up to 5 WAT): about 2
selective control of ST in rice (Sagittaria trifolia; 0.56 kg/ha): positive selective control
inhibition at 280 g/ha (Sagittaria trifolia; Sagittaria trifolia, 0.28 Kg/Ha, about 3 WAT, read-out: Percent Inhibition, ST): 75%
inhibition at 560 g/ha (Sagittaria trifolia; Sagittaria trifolia, 0.56 Kg/Ha, about 3 WAT, read-out: Percent Inhibition, ST): 85%
inhibition at 1120 g/ha (Sagittaria trifolia; Sagittaria trifolia, 1.12 Kg/Ha, about 3 WAT, read-out: Percent Inhibition, ST): 85%
inhibition at 2240 g/ha (Sagittaria trifolia; Sagittaria trifolia, 2.24 Kg/Ha, about 3 WAT, read-out: Percent Inhibition, ST): 90%
